Experimental data taken from article PMC8592027, “Structure-Guided Design of D-Galactal Derivatives with High Affinity and Selectivity for the Galectin-8 N-Terminal Domain” (ACS Medicinal Chemistry Letters, 2021).

Legend:
[1] = biological target: T1, galectin-1 (Homo sapiens, UniProt P09382); assay: Competitive fluorescence polarization assay, galectin-1; assay type: binding; conditions: mean ± SEM of n = 4–8
T1 construct: made in house
Method: 1. Competitive fluorescence polarization experiments:
Human galectins -1, -3, -4N, -4C, -7, -8N, -9N, and -9C were expressed and purified as previously described 30,41. Fluorescence polarisation experiments were performed using the PHERAstar FS plat e reader (software version 2.10 R3), and the fluorescence anisotropy of fluorescein tagged probes was measured by excitation at 485 nm and emission at 520 nm. The specific conditions for galectins -1, -3, -4N, -4C, -7, -8N, -9N, and -9C were kept as report ed30,41,42. The synthesised compounds were dissolved in pure DMSO at 20 mM concentration and diluted in PBS to 3-6 different concentrations, and each concentration was tested in duplicate. The highest inhibitor concentrations tested were 1.5 mM. The

[2] = test system: IL-6 secretion from MDA-MB-231 cells; assay: Multiplexed cytokine assay, IL-6 secretion; assay type: cell-based, human; conditions: 24 hours, vs untreated cells
Method: (§1) Figure 5 Effect of compounds 1 and 6a on the secretion of IL-6 and IL-8 expressed in pg/mL. The effects were measured after incubating the cells with the compounds at 10 and 100 μM. Compounds 1 and 6a reduce the secretion of IL-6 and IL-8 in a dose-dependent manner at 100 and 10 μM. Results shown are means ± SEM of three independent experiments. ns, not significant (p > 0.05); *p < 0.05 versus untreated controls.
(§2) Metabolic activity assay: […]
(§3) Briefly, the cells were treated with the selected compounds in 0.1% dimethyl sulfoxide (DMSO; vehicle), 0.1% DMSO (control vehicle), or medium (control) and seeded at a cell density of 5,500 cells/well (MDA-MB-231 cells) or 4 x 10^4 cells/well (K562 cells), 7000 cells/well (HepG2 cells) or 1 x 10^5 cells/well (human PBMCs) in duplicates (MDA-MB-231, K562, and […]) or triplicates for HepG2 cells (100 µL), in sterile 96-well plates. For the MDA-MB-231 and HepG2, the cells were left to adhere overnight before adding the compounds. The plates were then incubated for 24 hours (48 hours for HepG2), after which 15 µL of MTS reagent was added to each well. […]
(§4) HTX Multi-Mode; BioTek Instruments, Inc., VT, USA).
(§5) Multiplexed cytokine assay:
(§6) MDA-MB-231 cells were seeded in 96-well flat-bottom plates at a density of 2 x 10^4 cells/well in 100 µL of medium and allowed to adhere for 24 hours at 37 °C and 5% CO2. The medium was then replaced by a fresh medium containing the desired concentrations of compounds 1 and 6a, after which the cells were cells incubated again for 24 hours at 37 °C and 5% CO2. Cell-free supernatants were collected and stored at – 80 °C before the analysis. The cytokines secretion was assessed by BD Cytometric Bead Array Human inflammatory cytokine Kit (content: IL-1, IL-6, IL-8, IL-10, IL-12p). The flow cytometric analyses were performed on an Attune NxT flow cytometer (Thermo Fisher Scientific, Waltham, MA, USA). Standard curves were generated using recombinant cytokines provided in the kit, and the data were analyzed with FlowJo software (Tree Star, Inc., Ashland, OR). The results are expressed in pg/mL. Data are represented as means ± standard deviation (SD) from three representative independent experiments.
(§7) All experiments were performed at least twice, with average values expressed as means ± SD. All data were analyzed with the statistical software GraphPad Prism 8.0 (GraphPad Software, Inc., CA, USA). by one-way ANOVA followed with Dunnett’s multiple compar ison test. Differences were considered non-significant for p > 0.05, and significant (*) for p < 0.05.

[3] = test system: IL-8 secretion from MDA-MB-231 cells; assay: Multiplexed cytokine assay, IL-8 secretion; assay type: cell-based, human; conditions: 24 hours, vs untreated cells
Method: as §1, §2, §3, §4, §5, §6, §7

T1 sequence (P09382 whole entry): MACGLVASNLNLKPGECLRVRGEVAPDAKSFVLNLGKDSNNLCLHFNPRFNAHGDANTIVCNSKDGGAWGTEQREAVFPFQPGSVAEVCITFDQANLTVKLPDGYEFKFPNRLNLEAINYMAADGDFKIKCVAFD

Structure (SMILES): Cn1c(CO[C@@H]2C=CO[C@H](CO)[C@@H]2O)nc2ccc(C(=O)O)cc21 [6a]
- Kd [1]: 1.3 ± 0.13 mM
- reduction in IL-6 secretion ([2]; 10 μM, effect not significant): about 15%
- reduction of IL-6 secretion ([2]; 100 μM): about 65%
- reduction in IL-8 secretion ([3]; 10 μM, effect not significant): ~20%
- reduction of IL-8 secretion ([3]; 100 μM): about 55%
